Numbered stars: 1 amine (or outer) side, 2 acyl side, 3 side chain; on linkers, the order of the positions; unused ones are H or OH. Square brackets hold non-standard residues; d marks the D form. Peptide text beside a SMILES is read from it. * marks the point of attachment. Malonyl(2,2-Me2,histaminyl) = CC(C)(C(=O)NCCc1cnc[nH]1)C(=O)*; Gly(N-CH2CH2(4-MeOPh)) = COc1ccc(CCNCC(=O)O)cc1; hArg(Et2) = CCN=C(NCC)NCCCC[C@H](N)C(=O)O; Phe(3-Br) = N[C@@H](Cc1cccc(Br)c1)C(=O)O; X1 = O=C(CN(CCc1ccc2ccccc2c1)[*:1])[*:2]; X2 = O=C([C@@H](N[*:1])c1cccc(O)c1)[*:2]; X6 = O=C(CN(CCc1cccc2ccccc12)[*:1])[*:2]; X3 = NCCc1cccc(CCN(CC(=O)[*:2])[*:1])c1; Gly(NCH2CH2Ph) = O=C(O)CNCCc1ccccc1; PEG6 = NCCOCCOCCOCCOCCOCCOCCC(=O)O; Hyp = O=C(O)[C@@H]1C[C@@H](O)CN1; Hpg = N[C@H](C(=O)O)c1ccc(O)cc1; NMeN = CN[C@@H](CC(N)=O)C(=O)O; X5 = COCCOCCOCCOCCOCCOCCC(=O)*; Aoc(2) = CCCCCC[C@H](N)C(=O)O; Phg = N[C@H](C(=O)O)c1ccccc1; Nle = CCCC[C@H](N)C(=O)O
Tests used:
[1] = biological target: T1, human orexin type 1 receptor (hOX1R) (Homo sapiens, UniProt O43613); assay: Measurement of orexin type 1 receptor agonist activity (FLIPR TETRA intracellular Ca2+ fluorescence); type: cell-based; details: CHO cells expressing hOX1R; agonist activity, Ca2+ fluorescence; read-out: hOX1 pEC50 (converted)
T1 construct: expressed in transfected cells
T1 sequence (O43613 1-425): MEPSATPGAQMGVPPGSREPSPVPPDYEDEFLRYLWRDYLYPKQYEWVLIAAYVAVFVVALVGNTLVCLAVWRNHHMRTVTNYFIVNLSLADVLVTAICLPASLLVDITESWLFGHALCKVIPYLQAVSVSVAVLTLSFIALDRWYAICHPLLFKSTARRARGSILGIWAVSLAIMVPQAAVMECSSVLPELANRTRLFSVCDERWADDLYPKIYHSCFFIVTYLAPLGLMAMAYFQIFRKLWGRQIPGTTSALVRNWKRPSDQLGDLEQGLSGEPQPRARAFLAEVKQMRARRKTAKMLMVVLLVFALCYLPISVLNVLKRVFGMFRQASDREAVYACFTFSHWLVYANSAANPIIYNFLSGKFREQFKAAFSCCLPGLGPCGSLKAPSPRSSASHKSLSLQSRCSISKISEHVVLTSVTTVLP
Method: (§1) Stable cell line generation. Obtainment of cells stably expressing either human orexin type 2 or human orexin type 1 receptor: to obtain a stable cell line the Orexin receptor cDNA was inserted into pcDNA3.1(+) plasmid vector and clones identified by G418 drug resistance selection. […] A single clone for OX2R—CHO and OX1R—CHO were grown in bulk and frozen to generate a cell bank for routine screening.
(§2) Measurement of orexin type 1 receptor agonist activity. Chinese hamster ovary (CHO) cells expressing human orexin type 1 receptor (hOX1R) were seeded in each well of 384 well black clear bottom plates (BD Flacon) at 10,000 cells per well and cultured for 24 h in an Ham's F12 (Gibco) medium containing 10% fetal calf serum (Sigma Aldrich) under the conditions of 37° C., 5% CO2. After removal of the medium, 50 μL of assay buffer 1 (0.1% bovine serum albumin (Sigma Aldrich), 20 mM HEPES (Molecular Dimensions), […] probenecid (Sigma Aldrich), 1× Calcium 5 dye (Molecular Devices) in Hank's balanced salt solution (Invitrogen)) was added, and the cells were incubated for 60 min under the conditions of 37° C., 5% CO2. A test peptide was dissolved in dimethyl sulfoxide (Sigma Aldrich) to 1 mM, and then diluted with assay buffer 2 (20 mM HEPES, Hank's balanced salt solution, 0.1% bovine serum albumin). For the reaction, a test peptide solution (10 μl) was added using Fluorescent Imaging Plate Reader TETRA (FLIPR TETRA: manufactured by Molecular Devices), a fluorescence value (excitation wavelength 488 nm, measurement wavelength 570 nm) of each well was measured every one second for 2 min, and the agonist activity was determined using the area of the fluorescence value as an indicator of intracellular Ca^2+ concentration. The agonist activity of the test peptide was calculated assuming that the fluorescence value of the well added with only the dilution buffer was 0% and the fluorescence value of the well added with 10 nM human orexin A (Tocris) buffer was 100%. As used herein, Emax indicates the value at 1 μM concentration when orexin A is converted to a full agonist (maximum value of agonist activity: 100%).

[2] = biological target: T2, human orexin type 2 receptor (hOX2R) (Homo sapiens, UniProt O43614); assay: Measurement of orexin type 2 receptor agonist activity (FLIPR TETRA intracellular Ca2+ fluorescence); type: cell-based; details: CHO cells expressing hOX2R; agonist activity, Ca2+ fluorescence; read-out: hOX2 pEC50 (converted)
T2 construct: expressed in transfected cells
T2 sequence (O43614 1-444): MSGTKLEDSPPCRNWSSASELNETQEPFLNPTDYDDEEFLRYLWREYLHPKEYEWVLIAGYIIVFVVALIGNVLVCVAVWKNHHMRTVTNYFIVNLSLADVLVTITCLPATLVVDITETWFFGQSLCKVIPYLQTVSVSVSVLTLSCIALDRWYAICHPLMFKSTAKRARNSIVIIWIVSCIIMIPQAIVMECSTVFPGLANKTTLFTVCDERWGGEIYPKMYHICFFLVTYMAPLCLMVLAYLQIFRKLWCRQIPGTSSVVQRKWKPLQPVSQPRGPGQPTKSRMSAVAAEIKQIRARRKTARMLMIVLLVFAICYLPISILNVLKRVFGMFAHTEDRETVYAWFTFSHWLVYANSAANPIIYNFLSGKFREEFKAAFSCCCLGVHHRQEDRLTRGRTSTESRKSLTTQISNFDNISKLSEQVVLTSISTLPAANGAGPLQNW
Method: as §1
as §2, with “type 2” for “type 1”, “receptor (hOX2R)” for “receptor (hOX1R) were”

Structure (SMILES)	EC50 [1] [nM]	EC50 [2] [nM]
CC[C@H](C)[C@H](NC(=O)CNC(=O)[C@@H](NC(=O)[C@H](C)NC(=O)[C@@H]1C[C@@H](O)CN1C(=O)[C@H](CC(N)=O)NC(=O)CN(CCc1ccc2ccccc2c1)C(=O)[C@@H](N)CCCNC(=N)N)c1ccccc1)C(=O)N[C@@H](CC(C)C)C(=O)N[C@H](C(=O)N[C@@H](Cc1cccc(Br)c1)C(N)=O)[C@@H](C)O [Peptide 13] (H-R[X1]N[Hyp]A[Phg]GILT[Phe(3-Br)]-NH2)	1 to 10	< 0.1
CCCCCC[C@H](NC(=O)[C@@H](NC(=O)[C@H](CC(C)C)NC(=O)[C@@H](NC(=O)CNC(=O)[C@@H](NC(=O)[C@H](C)NC(=O)[C@@H]1C[C@@H](O)CN1C(=O)[C@H](CC(N)=O)NC(=O)CN(CCc1ccccc1)C(=O)[C@@H](N)CCCNC(=N)N)c1ccccc1)[C@@H](C)CC)[C@@H](C)O)C(N)=O [Peptide 14] (H-R[Gly(NCH2CH2Ph)]N[Hyp]A[Phg]GILT[Aoc(2)]-NH2; N-terminus assumed)	> 10	< 0.1
CCCCCC[C@H](NC(=O)[C@@H](NC(=O)[C@H](CC(C)C)NC(=O)[C@@H](NC(=O)CNC(=O)[C@@H](NC(=O)[C@H](C)NC(=O)[C@@H]1C[C@@H](O)CN1C(=O)[C@H](CC(N)=O)NC(=O)CN(CCc1ccccc1)C(=O)[C@H](CCCCN/C(=N/CC)NCC)NC(=O)C(C)(C)C(=O)NCCc1cnc[nH]1)c1ccccc1)[C@@H](C)CC)[C@@H](C)O)C(N)=O [Peptide 15] ({Malonyl(2,2-Me2,histaminyl)}-[hArg(Et2)][Gly(NCH2CH2Ph)]N[Hyp]A[Phg]GILT[Aoc(2)]-NH2)	> 10	< 0.1
CC[C@H](C)[C@H](NC(=O)CNC(=O)[C@@H](NC(=O)[C@H](C)NC(=O)[C@@H]1C[C@@H](O)CN1C(=O)[C@H](CC(N)=O)NC(=O)CN(CCc1cccc2ccccc12)C(=O)[C@@H](N)CCCNC(=N)N)c1ccccc1)C(=O)N[C@@H](CC(C)C)C(=O)N[C@H](C(=O)N[C@@H](Cc1cccc(Br)c1)C(N)=O)[C@@H](C)O [Peptide 16] (H-R[X6]N[Hyp]A[Phg]GILT[Phe(3-Br)]-NH2)	1 to 10	< 0.1
CCCCCC[C@H](NC(=O)[C@@H](NC(=O)[C@H](CC(C)C)NC(=O)[C@@H](NC(=O)CNC(=O)[C@@H](NC(=O)[C@H](C)NC(=O)[C@H](Cc1c[nH]cn1)NC(=O)[C@H](CC(N)=O)NC(=O)CN(CCc1ccccc1)C(=O)[C@@H](N)CCCCN/C(=N/CC)NCC)c1cccc(O)c1)[C@@H](C)CC)[C@@H](C)O)C(N)=O [Peptide 17] (H-[hArg(Et2)][Gly(NCH2CH2Ph)]NHA[X2]GILT[Aoc(2)]-NH2)	> 10	< 0.1
CCCCCC[C@H](NC(=O)[C@@H](NC(=O)[C@H](CC(C)C)NC(=O)[C@@H](NC(=O)CNC(=O)[C@@H](NC(=O)[C@H](C)NC(=O)[C@H](Cc1c[nH]cn1)NC(=O)[C@H](CC(N)=O)NC(=O)CN(CCc1ccc(OC)cc1)C(=O)[C@@H](N)CCCCN/C(=N/CC)NCC)c1ccccc1)[C@@H](C)CC)[C@@H](C)O)C(N)=O [Peptide 18] (H-[hArg(Et2)][Gly(N-CH2CH2(4-MeOPh))]NHA[Phg]GILT[Aoc(2)]-NH2)	> 10	< 0.1
CCCCCC[C@H](NC(=O)[C@@H](NC(=O)[C@H](CC(C)C)NC(=O)[C@@H](NC(=O)CNC(=O)[C@@H](NC(=O)[C@H](C)NC(=O)[C@@H]1C[C@@H](O)CN1C(=O)[C@H](CC(N)=O)N(C)C(=O)CN(CCc1cccc(CCN)c1)C(=O)[C@@H](N)CCCNC(=N)N)c1ccccc1)[C@@H](C)CC)[C@@H](C)O)C(N)=O [Peptide 19] (H-R[X3][NMeN][Hyp]A[Phg]GILT[Aoc(2)]-NH2)	> 10	< 0.1
CCCCCC[C@H](NC(=O)[C@@H](NC(=O)[C@H](CC(C)C)NC(=O)[C@@H](NC(=O)CNC(=O)[C@@H](NC(=O)[C@H](C)NC(=O)[C@H](Cc1c[nH]cn1)NC(=O)[C@H](CC(N)=O)NC(=O)CN(CCc1ccccc1)C(=O)[C@@H](N)CCCCN/C(=N/CC)NCC)c1ccc(O)cc1)[C@@H](C)CC)[C@@H](C)O)C(N)=O [Peptide 20] (H-[hArg(Et2)][Gly(NCH2CH2Ph)]NHA[Hpg]GILT[Aoc(2)]-NH2)	> 10	< 0.1
CCCC[C@H](NC(=O)[C@@H](NC(=O)[C@H](CC(C)C)NC(=O)[C@@H](NC(=O)CNC(=O)[C@@H](NC(=O)[C@H](C)NC(=O)[C@H](Cc1c[nH]cn1)NC(=O)[C@H](CC(N)=O)NC(=O)CN(CCc1ccccc1)C(=O)[C@H](CCCNC(=N)N)NC(=O)CCOCCOCCOCCOCCOCCOCCN)c1ccccc1)[C@@H](C)CC)[C@@H](C)O)C(N)=O [Peptide 21] (H-[PEG6]R[Gly(NCH2CH2Ph)]NHA[Phg]GILT[Nle]-NH2)	> 10	< 0.1
CCCCCC[C@H](NC(=O)[C@@H](NC(=O)[C@H](CC(C)C)NC(=O)[C@@H](NC(=O)CNC(=O)[C@@H](NC(=O)[C@H](C)NC(=O)[C@@H]1C[C@@H](O)CN1C(=O)[C@H](CC(N)=O)NC(=O)CN(CCc1ccccc1)C(=O)[C@H](CCCNC(=N)N)NC(=O)CCOCCOCCOCCOCCOCCOC)c1ccccc1)[C@@H](C)CC)[C@@H](C)O)C(N)=O [Peptide 22] (X5-R[Gly(NCH2CH2Ph)]N[Hyp]A[Phg]GILT[Aoc(2)]-NH2)	> 10	< 0.1
CCCCCC[C@H](NC(=O)[C@@H](NC(=O)[C@H](CC(C)C)NC(=O)[C@@H](NC(=O)CNC(=O)[C@@H](NC(=O)[C@H](C)NC(=O)[C@H](CCC(N)=O)NC(=O)[C@H](CC(N)=O)NC(=O)CN(CCc1ccccc1)C(=O)[C@@H](N)CCCCN/C(=N/CC)NCC)c1ccc(O)cc1)[C@@H](C)CC)[C@@H](C)O)C(N)=O [Peptide 23] (H-[hArg(Et2)][Gly(NCH2CH2Ph)]NQA[Hpg]GILT[Aoc(2)]-NH2)	> 10	< 0.1
CCCCCC[C@H](NC(=O)[C@@H](NC(=O)[C@H](CC(C)C)NC(=O)[C@@H](NC(=O)CNC(=O)[C@@H](NC(=O)[C@H](C)NC(=O)[C@H](Cc1c[nH]cn1)NC(=O)[C@H](CC(N)=O)NC(=O)CN(CCc1ccccc1)C(=O)[C@@H](N)CCCCNC(=NCC)NCC)c1ccccc1)[C@@H](C)CC)[C@@H](C)O)C(N)=O [Peptide 24] (H-[hArg(Et2)][Gly(NCH2CH2Ph)]NHA[Phg]GILT[Aoc(2)]-NH2; N-terminus assumed)	> 10	< 0.1

Reference: patent publication US20240360175A1, “PEPTIDE DERIVATIVES AND RELATED USES AS OREXIN AGONISTS” (Centessa Pharmaceuticals (UK) Limited, priority 2021, published 2024)
